Measured values: PubChem BioAssay AID1259411 (Chemical Carcinogenesis Research Information System (CCRIS), 2018)
Activity calls are given as the source filed them. The rule behind the calls is not given here.

Tested on: rodent carcinogenicity bioassays, tumor incidence
Test: CCRIS carcinogenicity studies
Conditions: Dose: 0, Dose: 0
Method in brief: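 NCI-built, expert-reviewed records of carcinogenicity and related test outcomes (mutagenicity, tumor promotion/inhibition) compiled from published and report sources, historical span 1985-2011, not updated.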

In the case of `CCCCCN(C)N=O`, the carcinogen call (Species: HAMSTER, Strain/Sex: SYRIAN/FEMALE, Route: GAVAGE, 5.6 MG/KG 1/WK FOR 23-30 WK (TOTAL DOSE: 0; 1.1 MMOL) (STUDY DURATION: LIFETIME), 5.6 MG/KG 1/WK FOR 23-30 WK (TOTAL DOSE: 0; 1.1 MMOL) (STUDY DURATION: LIFETIME), Tumor Site: Type of Lesion: LUNG: ALVEOLAR/BRONCHIAL ADENOMA, NASAL MUCOSA: CARCINOMA, ADENOMA, FORESTOMACH: SQUAMOUS CELL CARCINOMA, SQUAMOUS CELL, Tumor Site: Type of Lesion: LUNG: ALVEOLAR/BRONCHIAL ADENOMA, NASAL MUCOSA: CARCINOMA, ADENOMA, FORESTOMACH: SQUAMOUS CELL CARCINOMA, SQUAMOUS CELL) is reported as “active; positive”, the carcinogen call (Species: HAMSTER, Strain/Sex: SYRIAN/MALE,FEMALE, Route: INTRAPERITONEAL, 3, 6 MG/KG ONCE ON DAYS 1 AND 3 OF AGE, RESPECTIVELY (STUDY DURATION: >75 WK), 3, 6 MG/KG ONCE ON DAYS 1 AND 3 OF AGE, RESPECTIVELY (STUDY DURATION: >75 WK)) is reported as “inactive; negative” and the carcinogen call (Species: HAMSTER, Strain/Sex: SYRIAN/MALE,FEMALE, Route: INTRAPERITONEAL, 3 MG/KG ONCE TO NEWBORN ANIMALS (STUDY DURATION: LIFETIME)) is reported as “inactive; negative”. The carcinogen call (Species: HAMSTER, Strain/Sex: SYRIAN/MALE,FEMALE, Route: INTRAPERITONEAL, 6 MG/KG ONCE TO 3 D-OLD ANIMALS (STUDY DURATION: LIFETIME)) was “inactive; negative”, the carcinogen call (Species: HAMSTER, Strain/Sex: SYRIAN/MALE,FEMALE, Route: INTRAPERITONEAL, 70-100 MG/KG ONCE TO ADULT ANIMALS (STUDY DURATION: LIFETIME), Tumor Site: Type of Lesion: ESOPHAGUS: PAPILLOMA OR CARCINOMA) was “active; positive” and the carcinogen call (Species: HAMSTER, Strain/Sex: SYRIAN/MALE,FEMALE, Route: INTRAPERITONEAL, 70 MG/KG (3 MALE HAMSTERS), 100 MG/KG (11 FEMALE HAMSTERS) ONCE AT 46-49 DAYS OF AGE (STUDY DURATION: >43 WK), 70 MG/KG (3 MALE HAMSTERS), 100 MG/KG (11 FEMALE HAMSTERS) ONCE AT 46-49 DAYS OF AGE (STUDY DURATION: >43 WK)) was “inactive; negative”. The carcinogen call (Species: HAMSTER, Strain/Sex: SYRIAN/MALE,FEMALE, Route: INTRAPERITONEAL, 75 MG/KG 1/WK FOR 6 WK BEGINNING AT 38 DAYS OF AGE (STUDY DURATION: >33 WK), Tumor Site: Type of Lesion: FORESTOMACH: PAPILLOMA, LUNG: ADENOMA, NASAL CAVITY: TUMOR, Tumor Site: Type of Lesion: FORESTOMACH: PAPILLOMA, LUNG: ADENOMA, NASAL CAVITY: TUMOR) was “active; positive”, the carcinogen call (Species: HAMSTER, Strain/Sex: SYRIAN/MALE,FEMALE, Route: INTRAPERITONEAL, 75 MG/KG 1/WK FOR 6 WK TO ADULT ANIMALS (STUDY DURATION: LIFETIME), Tumor Site: Type of Lesion: ESOPHAGUS: PAPILLOMA, FORESTOMACH: PAPILLOMA, LUNG: ADENOMA, NASAL CAVITY: ADENOMA, ADENOCARCINOMA OR SQUAMOUS CARCINOMA, Tumor Site: Type of Lesion: ESOPHAGUS: PAPILLOMA, FORESTOMACH: PAPILLOMA, LUNG: ADENOMA, NASAL CAVITY: ADENOMA, ADENOCARCINOMA OR SQUAMOUS CARCINOMA) was “active; positive” and the carcinogen call (Species: HAMSTER, Strain/Sex: SYRIAN/MALE, Route: GAVAGE, 5.6 MG/KG 1/WK FOR 23-30 WK (TOTAL DOSE: 0; 1.1 MMOL) (STUDY DURATION: LIFETIME), 5.6 MG/KG 1/WK FOR 23-30 WK (TOTAL DOSE: 0; 1.1 MMOL) (STUDY DURATION: LIFETIME), Tumor Site: Type of Lesion: LIVER: HEPATOCELLULAR ADENOMA, HEMANGIOSARCOMA, LUNG: ALVEOLAR/BRONCHIAL ADENOMA, NASAL MUCOSA: CARCINOMA, FORESTOMACH:, Tumor Site: Type of Lesion: LIVER: HEPATOCELLULAR ADENOMA, HEMANGIOSARCOMA, LUNG: ALVEOLAR/BRONCHIAL ADENOMA, NASAL MUCOSA: CARCINOMA, FORESTOMACH:) was “active; positive”. For the same compound, the carcinogen call (Species: MOUSE, Strain/Sex: 101/N/MALE, FEMALE, Route: ORAL, 0.0015% IN DRINKING WATER FOR 8 WK (STUDY DURATION: 24 WK), Tumor Site: Type of Lesion: ESOPHAGUS: TUMOR) was “active; positive”, the carcinogen call (Species: MOUSE, Strain/Sex: BXH-8/MALE, FEMALE, Route: ORAL, 0.0015% IN DRINKING WATER FOR 8 WK (STUDY DURATION: 24 WK), Tumor Site: Type of Lesion: ESOPHAGUS: TUMOR) was “active; positive” and the carcinogen call (Species: MOUSE, Strain/Sex: C57BL/MALE,FEMALE, Route: ORAL, 0.0015% IN DRINKING WATER FOR 8 WK (STUDY DURATION: 24 WK), Tumor Site: Type of Lesion: ESOPHAGUS:TUMOR) was “active; positive”. For the same compound, the carcinogen call (Species: MOUSE, Strain/Sex: STX/LE/MALE,FEMALE, Route: ORAL, 0.0015% IN DRINKING WATER FOR 8 WK (STUDY DURATION: 24 WK), Tumor Site: Type of Lesion: ESOPHAGUS: TUMOR) was “active; positive”, the carcinogen call (Species: MOUSE, Strain/Sex: SWISS/MALE,FEMALE, Route: INTRAPERITONEAL, 15 MG/KG 1/WK FOR 3 WK BEGINNING AT 38 DAYS OF AGE (STUDY DURATION: >79 WK), Tumor Site: Type of Lesion: ESOPHAGUS: PAPILLOMA, LUNG: ADENOMA) was “active; positive” and the carcinogen call (Species: MOUSE, Strain/Sex: SWISS/MALE,FEMALE, Route: INTRAPERITONEAL, 15 MG/KG 1/WK FOR 3 WK TO ADULT ANIMALS (STUDY DURATION: LIFETIME), Tumor Site: Type of Lesion: ESOPHAGUS: PAPILLOMA, LUNG: ADENOMA) was “active; positive”. The carcinogen call (Species: RAT, Strain/Sex: WISTAR/MALE,FEMALE, Route: INTRAPERITONEAL, 6, 12.5 MG/KG ONCE AT 1 AND 3 DAYS OF AGE, RESPECTIVELY (STUDY DURATION: >82 WK), 6, 12.5 MG/KG ONCE AT 1 AND 3 DAYS OF AGE, RESPECTIVELY (STUDY DURATION: >82 WK)) was “inactive; negative”, the carcinogen call (Species: RAT, Strain/Sex: WISTAR/MALE,FEMALE, Route: INTRAPERITONEAL, 6 MG/KG ONCE TO NEWBORN ANIMALS (STUDY DURATION: LIFETIME)) was “inactive; negative” and the carcinogen call (Species: RAT, Strain/Sex: WISTAR/MALE,FEMALE, Route: INTRAPERITONEAL, 12.5 MG/KG ONCE TO 3 D-OLD ANIMALS (STUDY DURATION: LIFETIME)) was “inactive; negative”. For the same compound, the carcinogen call (Species: RAT, Strain/Sex: WISTAR/MALE,FEMALE, Route: INTRAPERITONEAL, 50-70 MG/KG ONCE TO ADULT ANIMALS (STUDY DURATION: LIFETIME), Tumor Site: Type of Lesion: ESOPHAGUS: PAPILLOMA, CARCINOMA) was “active; positive” and the carcinogen call (Species: RAT, Strain/Sex: WISTAR/MALE,FEMALE, Route: INTRAPERITONEAL, 50 MG/KG (7 FEMALE RATS), 60 MG/KG (2 FEMALE RATS), 70 MG/KG (10 MALE RATS) ONCE AT 42-50 DAYS OF AGE (STUDY DURATION, 50 MG/KG (7 FEMALE RATS), 60 MG/KG (2 FEMALE RATS), 70 MG/KG (10 MALE RATS) ONCE AT 42-50 DAYS OF AGE (STUDY DURATION, Tumor Site: Type of Lesion: ESOPHAGUS: CARCINOMA) was “active; positive”.

In the case of `O=C(OOC(=O)c1ccccc1)c1ccccc1`, the carcinogen call (Species: MOUSE, Strain/Sex: SENCAR/FEMALE, Route: DERMAL, 0.2 ML OF 100 MG/ML SOLUTION IN ACETONE 2 D/WK FOR 51 WK (STUDY DURATION: 52 WK), Tumor Site: Type of Lesion: SKIN: SQUAMOUS CELL CARCINOMA OR EPIDERMAL HYPERPLASIA) is reported as “active; positive”.

`Cn1c(=O)c2c(ncn2C)n(C)c1=O` (tested in a mixture with another compound) was tested, and the carcinogen call (Species: MOUSE, Strain/Sex: B6C3F1/FEMALE, Route: ORAL, 0.7, 1.4% OF DIET FOR 78 WK (STUDY DURATION: 94 WK), 0.7, 1.4% OF DIET FOR 78 WK (STUDY DURATION: 94 WK)) was “inactive; negative”, the carcinogen call (Species: MOUSE, Strain/Sex: B6C3F1/MALE, Route: ORAL, 0.7, 1.4% OF DIET FOR 78 WK (STUDY DURATION: 94 WK), 0.7, 1.4% OF DIET FOR 78 WK (STUDY DURATION: 94 WK)) was “inactive; negative” and the carcinogen call (Species: RAT, Strain/Sex: F344/FEMALE, Route: ORAL, 0.7, 1.4% OF DIET FOR 78 WK (STUDY DURATION: 113 WK), 0.7, 1.4% OF DIET FOR 78 WK (STUDY DURATION: 113 WK), Tumor Site: Type of Lesion: BLADDER: TRANSITIONAL CELL CARCINOMA, KIDNEY: TUBULAR CELL ADENOCARCINOMA, TRANSITIONAL CELL PAPILLOMA) was “equivocal”. The carcinogen call (Species: RAT, Strain/Sex: F344/MALE, Route: ORAL, 0.7, 1.4% OF DIET FOR 78 WK (STUDY DURATION: 113 WK), 0.7, 1.4% OF DIET FOR 78 WK (STUDY DURATION: 113 WK)) was “inactive; negative”.
